# Test results published in patent US9315459B2, “Crystalline forms of 4-[2-(4-methylphenylsulfanyl)-phenyl] piperidine” (priority 2006, dated 2016).
# Tests used:
# [1] = biological target: T1, human alpha1A-7 receptors (Homo sapiens, UniProt P35348); experiment: Functional assay, adrenaline evoked release of Ca2+ in CHO cells expressing human alpha1A-7 receptors; type: cell-based
# T1 construct: expressed in transfected cells; host or cells: CHO cells
# T1 sequence (P35348 1-466): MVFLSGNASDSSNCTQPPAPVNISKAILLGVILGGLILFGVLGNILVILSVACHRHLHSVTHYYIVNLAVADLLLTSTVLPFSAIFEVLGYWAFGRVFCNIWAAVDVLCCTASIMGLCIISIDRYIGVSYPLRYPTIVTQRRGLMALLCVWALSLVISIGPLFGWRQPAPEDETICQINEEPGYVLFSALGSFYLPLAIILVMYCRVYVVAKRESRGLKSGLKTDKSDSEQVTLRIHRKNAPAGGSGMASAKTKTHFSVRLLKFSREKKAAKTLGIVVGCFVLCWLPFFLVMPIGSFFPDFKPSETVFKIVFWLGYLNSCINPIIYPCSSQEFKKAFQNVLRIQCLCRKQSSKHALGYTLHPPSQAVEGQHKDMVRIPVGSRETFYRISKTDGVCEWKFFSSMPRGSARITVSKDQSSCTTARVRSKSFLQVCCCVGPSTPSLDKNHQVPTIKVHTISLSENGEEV
# Experimental: These experiments were carried out essentially as described below. All cells were cultured in DMEM medium supplemented with 10% BCS, 4 mM L-glutamine (or 2 mM in the case of COS-7), and 100 units/ml penicillin plus 100 μg/ml streptomycin, at 37° C., in 5% CO2. Twenty-four hours prior to assays, CHO cells expressing the human alpha1A-7 receptors were seeded into 384-well black wall microtiter plates coated with poly-D-lysine. […] After excess dye was discarded, cells were washed in assay buffer and layered with a final volume equal to 45 μl/well (or 30 ul/well for antagonist assay). […] Basal fluorescence was monitored in a fluorometric imaging plate reader or FLIPR™ from Molecular Devices (Sunnyvale, Calif.) with an excitation wavelength of 488 nm and an emission range of 500 to 560 nm. Laser excitation energy was adjusted so that basal fluorescence readings were approximately 8,000 relative fluorescent units (RFU). Cells were then stimulated at room temperature with agonists diluted in assay buffer (15 μl), and RFU were measured at 1.5 second intervals over a period of 2.5 min. Maximum change in fluorescence was calculated for each well. Concentration-response curves derived from the maximum change in fluorescence were analyzed by nonlinear regression (Hill equation).
# human 5-HT2A receptors = biological target: T2, human 5-HT2A receptors (Homo sapiens, UniProt P28223); experiment: Functional assay, 5-HT evoked release of Ca2+ in CHO cells expressing human 5-HT2A receptors (FLIPR); type: cell-based; conditions: mammalian cells expressing human 5-HT2A
# T2 construct: expressed in transfected cells; host or cells: CHO cells (functional assay)
# T2 sequence (P28223 whole entry): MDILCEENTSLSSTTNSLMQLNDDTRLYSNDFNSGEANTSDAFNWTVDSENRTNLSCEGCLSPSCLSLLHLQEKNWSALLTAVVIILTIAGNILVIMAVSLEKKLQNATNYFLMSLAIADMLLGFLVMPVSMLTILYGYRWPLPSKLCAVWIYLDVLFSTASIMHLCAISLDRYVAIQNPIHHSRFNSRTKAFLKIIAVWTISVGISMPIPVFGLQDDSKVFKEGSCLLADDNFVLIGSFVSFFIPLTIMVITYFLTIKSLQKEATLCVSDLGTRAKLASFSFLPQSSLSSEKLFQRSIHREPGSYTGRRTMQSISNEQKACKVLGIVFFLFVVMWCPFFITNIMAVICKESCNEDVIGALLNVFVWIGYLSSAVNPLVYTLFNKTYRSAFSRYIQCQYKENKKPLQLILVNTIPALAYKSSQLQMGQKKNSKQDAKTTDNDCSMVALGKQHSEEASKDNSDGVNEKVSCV
# Experimental: The experiment was carried out as follows. 2 or 3 days before the experiment CHO cells expressing 250 fmol/mg human 5-HT2A receptors are plated at a density sufficient to yield a mono-confluent layer on the day of the experiment. […] Lacer intensity was set to a suitable level to obtain basal values of approximately 8000-10000 fluorescence units. The variation in basal fluorescence should be less than 10%. […] Ki values are calculated using Cheng-Prusoff equation.
# [2] = biological target: T3, human-homomeric 5-HT3A receptors (Homo sapiens, UniProt P46098); experiment: Voltage clamp in oocytes expressing human-homomeric 5-HT3A receptors; type: cell-based; conditions: agonism at higher concentrations
# T3 sequence (P46098 24-478): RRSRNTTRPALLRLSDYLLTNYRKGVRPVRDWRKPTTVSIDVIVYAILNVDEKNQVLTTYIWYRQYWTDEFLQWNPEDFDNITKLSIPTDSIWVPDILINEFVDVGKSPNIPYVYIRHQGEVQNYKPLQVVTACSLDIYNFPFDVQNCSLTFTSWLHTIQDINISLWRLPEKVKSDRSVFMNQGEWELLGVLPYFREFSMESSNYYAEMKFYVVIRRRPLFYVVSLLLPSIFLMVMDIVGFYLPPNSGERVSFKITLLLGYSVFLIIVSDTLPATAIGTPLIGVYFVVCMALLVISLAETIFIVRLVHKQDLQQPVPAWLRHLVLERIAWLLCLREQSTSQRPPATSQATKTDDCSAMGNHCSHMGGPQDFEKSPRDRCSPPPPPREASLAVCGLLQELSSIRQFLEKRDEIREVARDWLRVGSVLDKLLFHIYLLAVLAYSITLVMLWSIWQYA
# Experimental: The experiments were carried out as follows. […] Oocytes avoid of the follicle layer were selected and incubated for 24 hours in Modified Barth's Saline buffer [88 mM NaCl, 1 mM KCl, 15 mM HEPES, 2.4 mM NaHCO3, 0.41 mM CaCl2, 0.82 mM MgSO4, 0.3 mM Ca(NO3)2] supplemented with 2 mM sodium pyruvate, 0.1 U/l penicillin and 0.1 μg/l streptomycin. Stage […] oocytes were identified and injected with 12-48 nl of nuclease free water containing 14-50 pg of cRNA coding for human 5-HT3A receptors receptors and incubated at 18° C. until they were used for electrophysiological recordings (1-7 days after injection). […] Cells were impaled with agar plugged 0.5-1 MΩ electrodes containing 3 M KCl and voltage clamped at −90 mV by a GeneClamp 500B amplifier. The oocytes were continuously perfused with Ringer buffer and the drugs were applied in the perfusate.
# C57/B6 mice = experiment: Formalin model of neuropathic pain, time spent licking the injured paw; type: in vivo; conditions: summary in words of table 4
# Experimental: The irritation caused by the formalin injection elicits a characteristic biphasic behavioural response, as quantified by the amount of time spent licking the injured paw. The first phase (˜0-10 minutes) represents direct chemical irritation and nociception, whereas the second (˜20-30 minutes) is thought to represent pain of neuropathic origin. The two phases are separated by a quiescent period in which behaviour returns to normal. Measuring the amount of time spent licking the injured paw in the two phases assesses the effectiveness of test compounds to reduce the painful stimuli. Eight C57/B6 mice (ca. 25 g) were tested per group. Table 4 below show the amount of time spent licking the injured paw in the two phases, i.e. 0-5 minutes and 20-30 minutes post formalin injection. The amount of compound administered is calculated as the free base.
structure (smiles),measurement,setting,value
"Cc1ccc(Sc2ccccc2C2CCNCC2)cc1 [compound I, 4-[2-(4-methylphenylsulfanyl)-phenyl]piperidine]","Functional profile, adrenaline evoked release of Ca2+",[1],antagonists
same,Mode of action at human 5-HT2A receptors,human 5-HT2A receptors,competitive antagonistic properties
same,"Maximal current, % of the maximal current elicited by 5-HT",[2],70-80%
same,Effect in the first phase (direct chemical irritation and nociception),C57/B6 mice,little effect
same,Effect in the second phase (time spent licking paws),C57/B6 mice,clear and dose dependent decrease
